# Patent US20160220710A1, “COMPOSITIONS AND METHODS FOR DELIVERING PHARMACEUTICAL AGENTS” (THE REGENTS OF THE UNIVERSITY OF MICHIGAN, priority 2015, published 2016)
# Tests used:
# [1] = system: F4/80(+) peritoneal macrophages (PMΦ); assay: Flow cytometry of peritoneal exudate of CFZ-treated mice; format: in vivo
# Excerpt: Mice (4 week old, male C57Bl6) were purchased from the Jackson Laboratory (Bar Harbor, Me.) and acclimatized for 1 week in a specific-pathogen-free animal facility. Animal care was provided by the University of Michigan's Unit for Laboratory Animal Medicine (ULAM) and the experimental protocol was approved by the Committee on Use and Care of Animals in accordance with NIH guidelines. An oral diet containing CFZ was fed to mice as previously described (Baik J, et al., Antimicrob. Agents Chemother. 2013; 57:1218-30; Baik J, et al., PLoS One 2012; 7:e47494; Keswani R K, et al., Mol. Pharm. 2015:10). CFZ (C8895; Sigma-Aldrich, St. Louis, Mo., USA) was dissolved in sesame oil (Roland, China, or Shirakiku, Japan) to achieve a concentration of 3 mg/ml, which was mixed with Powdered Lab Diet 5001 (PMI International, Inc., St. Louis, Mo., USA) to produce a 0.03% drug to powdered feed mix. A corresponding amount of sesame oil was mixed with chow for vehicle treatment (control mice). On average, food consumption for a 25 g mouse was 3 g per day, resulting in 10 mg of bioavailable drug/kg per day. For CFZ treatment, the drug diet was administered for 8 weeks followed by regular chow for 8 weeks (washout phase).
# Peritoneal lavage was done as previously reported before and after the initiation of CFZ or vehicle treatment (1 week, 2 weeks, 4 weeks, 8 weeks and 16 weeks (8 weeks drug feed+8 weeks washout phase)) (16). Mice were euthanized as described above followed by sterilization of the outer skin with 70% ethanol. A small incision was made along the midline of the abdomen followed by abdominal skin retraction up to the thoracic boundary and the animal extremities to expose the intact peritoneal wall. A smaller incision was then made on the peritoneal wall to expose the cavity. The entire peritoneal cavity was washed with ice-cold sterile PBS+5% FBS (5-10 ml) and collected as peritoneal exudate. The exudate was then centrifuged (100×g for 5 min, 4° C.) and resuspended in 1.5 ml of PBS+5% FBS. Cells were counted using a hemocytometer for viable cells using Trypan Blue and for CLDI-containing cells.
# Peritoneal and alveolar lavage was performed as stated before to obtain the respective exudates. Purified Fc block CD16/32 (1 μl) was added for every 100,000 cells for analysis. For CLDI fluorescence signal experiments, cells were pelleted by centrifugation (100×g for 5 min) followed by resuspension in PBS+5% FBS (500 μl). For functional assays, antibodies—anti-F4/80-eFluor 450 (48-4801, Affymetrix eBioscience, San Diego, Calif., USA), anti-CD86-FITC (553691, BD Biosciences, San Jose, Calif., USA), anti-CD206-FITC (141704, BioLegend®, San Diego, Calif., USA), anti-CD11c-eFluor450 (48-0114, Affymetrix eBioscience) and anti-Ly6G-eFluor450 (48-5931, Affymetrix eBioscience) were added to the cell suspension at a loading of 1 μg/100,000 cells (1:10 volumetric ratio) and incubated in the dark (30 min, 4° C.). Following incubation, the samples were diluted with PBS and pelleted by centrifugation (100×g, 5 min). The supernatant was discarded and the pellet was re-suspended in 300 μl of PBS+2% FBS. Just prior to analysis, PI (5 μl per 1×10^6 cells) was added to the cells to assess viability. Sample measurements were done on a MoFlo® Astrios™ EQ. All gating and analysis was done on at least 10,000 live cells (PI(−) cell population) using FlowJo. CLDI(+) cells were gated either using 640 671/30 or 640 795/70. […] These cells also had extremely high side-scatter that were measured as saturated signals. This small sub-population of cells were not considered for evaluation of change of CD206 expression in the peritoneal macrophages.
# RAW 264.7 cells = assay: Cell viability assay (XTT assay); format: cell-based, murine; details: 24 h
# Description: Cells were plated in triplicate wells at a density of 5×10^3 per well in 96-well plates in DMEM with 5% FBS and allowed to adhere overnight. Soluble CFZ (Stock solution 5 mM in DMSO) or CLDIs were added (0.25, 0.5, 1, 2, 4, 10, 20, 40 and 80 μM final concentrations) to cells and incubated (37° C.) for 24 h. XTT assay (Roche, UK) was carried out according to the manufacturer's instructions with absorbance measured at 450 nm and 690 nm using a Synergy-2 plate reader (Biotek). The cell viability percentage was calculated by comparing absorbance of CFZ and CLDI-treated cells to control (untreated) cells.
# IL-1RA = IL-1RA ELISA; format: cell-based, murine; details: RAW 264.7 cells, 24 h
# Description: (§1) The murine macrophage cell line RAW 264.7 was purchased from ATCC (Manassas, Va.) and maintained in DMEM (Life Technologies, Carlsbad, Calif.) supplemented with 10% FBS. Soluble CFZ or isolated CLDIs were added at various concentrations in DMEM with 5% FBS to 6-well plates containing 4×10^5 cells/well and incubated (24 h at 37° C. and 5% CO2). Culture supernatants were harvested at 24 h, centrifuged (1500×g for 5 min), and stored (−20° C.) in frozen aliquots prior to analysis. For experiments involving TLR stimulation, cells were washed twice with pre-warmed DPBS to remove extracellular, non-phagocytosed CLDIs or CFZ, and then the cells were serum-starved for 18 h in DMEM. Supernatants were collected from unstimulated cells and cells stimulated with 200 ng/ml Pam3 or 1 μg/ml LPS in DMEM.
# (§2) The media of cells with or without 6 h TLR stimulation by Pam3 or LPS was harvested, and TNFα and IL-1RA levels were measured by ELISA (Duoset, R&D Systems, Minneapolis, Minn.) in duplicate wells according to the manufacturer's instructions. The cytokine concentrations were expressed as picogram per milligram of cell lysate. Experiments were repeated three times and values are expressed as the mean±SD.
# TNFα = TNFα ELISA, non-stimulated cells; format: cell-based, murine; details: non-stimulated RAW 264.7 cells
# Description: as §1, §2
smiles,measurement,setting,value
"CC(C)/N=c1\cc2n(-c3ccc(Cl)cc3)c3ccccc3nc-2cc1Nc1ccc(Cl)cc1 [CFZ, 3-(p-chloroanilino)-10-(p-chlorophenyl)-2, 10-dihydro-2-isopropyliminophenazine]",% CLDI(+) cells identified as F4/80(+) CD86(+),[1]; 4 weeks post-drug feeding,~38%
same,% CLDI(+) cells identified as F4/80(+) CD206(+),[1]; 4 weeks post-drug feeding,~20%
same,ratiometric CD86 median surface expression in CLDI(+) relative to CLDI(−),[1]; 4 weeks post-drug feeding,~1.17
same,% of F4/80(+) PMΦ that were CLDI(+),[1]; 8 weeks of washout,~25%
same,ratiometric CD86 median surface expression in CLDI(+) relative to CLDI(−),[1]; 8 weeks post-drug feeding,0.95
same,% CLDI(+) cells identified as F4/80(+) CD86(+),[1]; 8 weeks+8 weeks washout,~70%
same,% CLDI(+) cells identified as F4/80(+) CD206(+),[1]; 8 weeks+8 weeks washout,~81%
same,CLDI accumulation within F4/80(+) CD86(+) cells,[1]; 8 weeks+8 weeks washout,~95%
same,CLDI(+)% as a proportion of F4/80(+) CD206(+) cells,[1]; 8 weeks+8 weeks washout,~93%
same,% of F4/80(+) PMΦ that were CLDI(+),[1]; after 4 weeks of CFZ treatment,~38%
same,CLDI accumulation within F4/80(+) CD86(+) cells,[1]; after 4 weeks of CFZ treatment,~31%
same,CLDI(+)% as a proportion of F4/80(+) CD206(+) cells,[1]; after 4 weeks of CFZ treatment,~15%
same,% of F4/80(+) PMΦ that were CLDI(+),[1]; after 8 weeks of treatment,~61%
same,% of total CLDI(+) cells localized to F4/80(+) peritoneal macrophages,[1]; all measured time points,> 85%
same,cell viability,RAW 264.7 cells; 2 μM,61%
same,cell viability,RAW 264.7 cells; 10 μM,20%
same,IL-1RA secretion,IL-1RA,did not affect IL-1RA secretion
same,TNFα production on their own,TNFα,failed to induce TNFα production
